# Data from PMC9065877, “Safety, tolerability and pharmacokinetics of the oligomer modulator anle138b with exposure levels sufficient for therapeutic efficacy in a murine Parkinson model: A randomised, double-blind, placebo-controlled phase 1a trial” (EBioMedicine, 2022).
# Like-named read-outs stand apart in the source and are kept apart here.
# Tests used:
# [1] = Multiple ascending dose (MAD, QD 7 days) oral pharmacokinetics of anle138b in healthy subjects, plasma; format: in vivo, human
# Description: This was a single-centre, double-blind, randomised, placebo-controlled single ascending dose (SAD) and multiple ascending dose (MAD) study of anle138b in doses of up to 300 mg per day in healthy subjects. In addition, the effect of food (FES) on the PK of anle138b in healthy subjects was examined using single doses of 150 mg. Participants were recruited from Quotient Sciences (Nottingham, UK) volunteer database.
# As a safety precaution, sentinel dosing was performed for all SAD and MAD cohorts. In SAD, subjects received a single dose of anle138b or placebo after fasting from all food and drink (except water) for a minimum of 8 h prior to dosing. The dosing in the four SAD-cohorts were 50 mg, 100 mg, 200 mg and 300 mg of free anle138b equivalent, respectively. In the MAD part, participants received anle138b or placebo once daily (QD) for 7 days after fasting from all food and drink (except water) for a minimum of 8 h prior to dosing. The dosing in the three MAD-cohorts was 100 mg, 200 mg and 300 mg of free anle138b equivalent, respectively. Post dosing mouth and hand checks were conducted to ensure the capsules were swallowed. In-study decisions regarding continuation and dose escalation were made by the safety advisory committee (SAC) comprising the principal investigator, the sponsor's medical monitor and a PK expert. For dose escalation to proceed, data needed to be available from a minimum of 6 subjects per cohort with completed per protocol safety and PK assessments up to 48 h after dosing to ensure at least 4 subjects had received active IMP. The decision to proceed to the next higher dose level was based on safety, tolerability and available PK data to 48 h post-dose. The following data were required: Adverse events, vital signs, safety laboratory, ECG, physical examinations, plasma concentrations of anle138b with interim PK parameter estimations (Tmax, Cmax, AUC(0-24), AUC(0-tau), AUC(0-last) and T½, where applicable). Data were provided to the SAC in accordance with Quotient Sciences’ standard operating procedure (SOP) on interim dose decision-making and dose escalation.
# Secondary outcome measures were the oral PK of single (SAD) and multiple (MAD) ascending doses of anle138b in the fasted state as well as the effect of co-administration with food on the PK of anle138b. To this end PK blood samples were taken at day 1 (and for MAD day 7) pre-dose and at 0·5, 1, 1·5, 2, 3, 4, 6, 8, 10, 12, 16 and 20 h post-dose, at days 2 to 6 pre-dose only (MAD) and 24, 30, 36 and 48 h post final dose. Analysis of anle138b in plasma was done at Aptuit, an Evotec company, in Verona, Italy. Time point of last quantifiable data was seen to increase with an increase in dose as follows: SAD: from the 50mg dose (subjects ranged between 8-24h) to the 300mg dose (subjects ranged between 36-48h). MAD: from the 100mg dose (subjects ranged between 8-36h) to the 300mg dose (subjects ranged between 20-48h). In FES, subjects ranged between 24-48h.
# The study was exploratory and no formal sample size calculation was made. Based on experience from previous studies of similar design, eight subjects per cohort were enrolled for parts 1 (SAD) and 2 (MAD) and a total of twelve subjects for part 3 (FES). Populations and analysis sets were determined for safety and PK data after database lock using the criteria defined in the reporting and analysis plan. The safety population and safety analysis set for SAD and MAD were defined after database lock but prior to study unblinding. Statistical analysis and production of summary tables, figures and listings for all safety data (AEs, vital signs, ECGs and safety laboratory assessments) including changes from baseline as required in this study were performed using the statistical package SAS (v9·4). Additional statistics was provided for PK-related data including coefficient of variation (CV%), geometric mean, geometric CV%, and the number n of subjects that were included in the natural logarithmic transformation). […]
# [2] = animal studies; cited from earlier work
structure (smiles),measurement,setting,value
"Brc1cccc(-c2cc(-c3ccc4c(c3)OCO4)n[nH]2)c1 [anle138b, 3-(1,3-benzodioxol-5-yl)-5-(3-bromophenyl)-1H-pyrazole]",Time point of last quantifiable data (range of subjects),[1]; MAD 100mg dose,8 to 36 h
same,Time point of last quantifiable data (range of subjects),[1]; MAD 300mg dose,20 to 48 h
same,Effect of multiple dosing on Tmax,[1]; MAD day 7 vs day 1,unaffected by multiple dosing
same,Exposure relative to the level required for full efficacy in PD mouse model (≥300 ng*h/ml),"[1]; highest dose tested (300 mg), multiple dosing",more than twice this exposure
same,Cmax,"[1]; human, plasma, oral, 100 mg, MAD Cohort A 100 mg QD, dosing day 1, fasted, geometric mean (CV%)",0.135 µg/mL
same,AUC(0-t),"[1]; human, plasma, oral, 100 mg, MAD Cohort A 100 mg QD, dosing day 1, fasted, geometric mean (CV%), read-out: AUC(0-24)",0.261 µg·h/mL
same,AUC(0-t),"[1]; human, plasma, oral, 100 mg, MAD Cohort A 100 mg QD, dosing day 7, fasted, geometric mean (CV%), read-out: AUC(0-24)",0.141 µg·h/mL
same,Cmax,"[1]; human, plasma, oral, 200 mg, MAD Cohort B 200 mg QD, dosing day 1, fasted, geometric mean (CV%)",0.447 µg/mL
same,AUC(0-t),"[1]; human, plasma, oral, 200 mg, MAD Cohort B 200 mg QD, dosing day 1, fasted, geometric mean (CV%), read-out: AUC(0-24)",0.905 µg·h/mL
same,Cmax,"[1]; human, plasma, oral, 200 mg, MAD Cohort B 200 mg QD, dosing day 7, fasted, geometric mean (CV%)",0.128 µg/mL
same,AUC(0-t),"[1]; human, plasma, oral, 200 mg, MAD Cohort B 200 mg QD, dosing day 7, fasted, geometric mean (CV%), read-out: AUC(0-24)",0.308 µg·h/mL
same,AUC(0-t),"[1]; human, plasma, oral, 200 mg, multiple dosing at a daily dose of 200 mg, read-out: Exposure level (AUC0-24)",≥ 0.3 µg·h/mL
same,Cmax,"[1]; human, plasma, oral, 300 mg, MAD Cohort C 300 mg QD, dosing day 1, fasted, geometric mean (CV%)",0.91 µg/mL
same,AUC(0-t),"[1]; human, plasma, oral, 300 mg, MAD Cohort C 300 mg QD, dosing day 1, fasted, geometric mean (CV%), read-out: AUC(0-24)",2.21 µg·h/mL
same,Cmax,"[1]; human, plasma, oral, 300 mg, MAD Cohort C 300 mg QD, dosing day 7, fasted, geometric mean (CV%)",0.307 µg/mL
same,AUC(0-t),"[1]; human, plasma, oral, 300 mg, MAD Cohort C 300 mg QD, dosing day 7, fasted, geometric mean (CV%), read-out: AUC(0-24)",0.633 µg·h/mL
same,half-life,"[1]; human, plasma, oral, MAD Cohort B 200 mg QD, dosing day 7, fasted, geometric mean (CV%), N=5",~10 h
same,Day by which steady state exposure appeared to be reached,"[1]; trough (pre-dose) levels, repeated daily dosing",≤ 5 days
same,Levels of anle138b in the brain relative to plasma,[2],5 fold
same,Oral bioavailability (in words),[2],high oral bioavailability
